According to patent publication US20090155440A1, “Salt Enhancing Compounds and Use” (GIVAUDAN SA, priority 2005, published 2009):

Key:
Assay type in all cases: in vivo
sensory panel [1] = assay: Sensory triangle test in chicken broth, Examples 3a and 3b; conditions: for Kokumi Intensity (0-5): scale 0 to 5, 5 most intensive, reference 2; for Sensory results (compared to 1): chicken broth, Example 3b
Method: (§1) Unless otherwise indicated, all sensory tests are triangle tests and are performed according to the guidelines in “Amtliche Sammlung von Untersuchungsverfahren nach § 35 LMBG (Lebensmittel-und Bedarfsgegenständegesetz)”; L 00.90 7, Untersuchung von Lebensmitteln, Sensorische Prüfverfahren, Dreiecksprüfung (Übernahme der gleichnahmigen Deutschen Norm DIN ISO 4120, Ausgabe Januar 1995), as follows:
The sensory panel is trained to evaluate the taste of aqueous solutions (4 ml each) of the following standard taste compounds by using a triangle test as described in the literature (Wieser and Belitz, Z. Lebensm. Unters. Forsch., 1975,159, 65-72): sucrose (40 mmol/L) for sweet taste; citric acid (5 mmol/L) for sour taste; NaCl (12 mmol/L) for salty taste; caffeine (2 mmol/L) for bitter taste; and monosodium glutamate (MSG; 6 mmol/L) for umami taste. For kokumi taste, a solution of glutathione (10 mmol/L) in diluted chicken broth concentrate (Goumet Bouillon Huhn, Maggi, Singen, Germany; 3 g/100 g bottled water (Evian®)) is prepared and compared to the taste of chicken broth with no glutathione added.
(§2) For recording the taste profiles, samples are prepared as indicated in the examples below. Taste profiles of samples are determined in a triangle test in three different sessions. Panellists refrain from eating or drinking for at least 1 hour prior to the session. At the start of the session and before each trial, the subject rinsed with water and expectorated. The participants receive a set of two blanks and one taste sample. Liquid samples are swirled around in the mouth briefly and expectorated. Solid samples are chewed for 20 seconds and then expectorated. […] Each sample with additive is compared to two reference samples without additives. Kokumi intensity is rated from 0-5 according to a scale from 0 to 5 (with 5 most intensive). The additive is added to a consumable and the sample is homogenised. The samples are presented to the sensory panel directly after homogenisation. The sensory panel included 6-8 trained individuals with exception of example 4, here the panel consists of 10 trained individuals.
Chicken broth is prepared by diluting 3 g of a chicken broth concentrate (Gourmet Bouillon Huhn, Nestle) with 100 ml water. Additives are added as specified in table below in a concentration of 10 mmol/L. The pH-value of all samples is adjusted to 6.5 using formic acid (0.1 mol/L) or sodium hydroxide (0.1 mol/L).
Kokumi intensity is rated according to a scale from 0 to 5 (with 5 most intensive). […] The additive is added to a consumable and the sample is homogenised.
The samples are presented to the sensory panel directly after homogenisation. The sensory panel included 8 trained individuals.
The samples are tested as described above in example 3a.

sensory panel [2] = assay: Sensory test in cream cheese, Example 4; conditions: for Sensory results compared to 2: versus NaCl Reference (2000 ppm); for Sensory results (compared to 1): versus reference without additives
Method: as §1, §2
Samples are compared by a panel of 10 trained panelists.

sensory panel [3] = assay: Isointensity triangle test in sodium and potassium salt solution (30 mmol/L NaCl, 15 mmol/L KCl), Example 1b; conditions: NaCl 30 mmol/L + KCl 15 mmol/L, salt enhancer 10 mmol/L; without enhancer 40 mmol/L
Method: Unless otherwise indicated, all sensory tests are triangle tests and are performed according to the guidelines in “[…] von […]-und Bedarfsgegenständegesetz)”; L 00.90 7, Untersuchung von Lebensmitteln, Sensorische […] Deutschen Norm DIN ISO 4120, Ausgabe Januar 1995), as follows: For recording the taste profiles, samples are prepared as indicated in the examples below. Taste profiles of samples are determined in a triangle test in three different sessions. Panellists refrain from eating or drinking for at least 1 hour prior to the session. At the start of the session and before each trial, the subject rinsed with water and expectorated. The participants receive a set of two blanks and one taste sample. Liquid samples are swirled around in the mouth briefly and expectorated. Solid samples are chewed for 20 seconds and then expectorated. […] Each sample with additive is compared to two reference samples without additives. Kokumi intensity is rated from 0-5 according to a scale from 0 to 5 (with 5 most intensive). The additive is added to a consumable and the sample is homogenised. The samples are presented to the sensory panel directly after homogenisation. […] KCl is often used in small concentrations to reduce sodium without loss of salty taste. […] For the samples compared and the results see the table below.

sensory panel [4] = assay: Sensory test in ketchup, Example 5; conditions: additive 500 ppm
Method: as §1
as §2, with “The sensory panel included 6-8 trained individuals with exception of example 4, here the panel consists of 10 trained individuals.” left out

sensory panel [5] = assay: Isointensity triangle test, S-substituted peptides in sodium salt solution (30 mmol/L NaCl), Example 1a; conditions: compound 10 mmol/L in aqueous NaCl 30 mmol/L, pH 6.5; reference without additive 30 mmol/L
Method: Unless otherwise indicated, all sensory tests are triangle tests and are performed according to the guidelines in “[…] von […]-und Bedarfsgegenständegesetz)”; L 00.90 7, Untersuchung von Lebensmitteln, Sensorische […] Deutschen Norm DIN ISO 4120, Ausgabe Januar 1995), as follows: The sensory panel is trained to evaluate the taste of aqueous solutions (4 ml each) of the following standard taste compounds by using a triangle test as described in the literature ([…] and Belitz, Z. Lebensm. Unters. Forsch., 1975,159, 65-72): sucrose (40 mmol/L) for sweet taste; citric acid (5 mmol/L) for sour taste; […] All sensory analyses are performed in a sensory panel room at 22-25° C. over three different sessions by a trained panel of 8 to 10 individuals. For recording the taste profiles, samples are prepared as indicated in the examples below. Taste profiles of samples are determined in a triangle test in three different sessions. Panellists refrain from eating or drinking for at least 1 hour prior to the session. At the start of the session and before each trial, the subject rinsed with water and expectorated. The participants receive a set of two blanks and one taste sample. Liquid samples are swirled around in the mouth briefly and expectorated. Solid samples are chewed for 20 seconds and then expectorated. […] Each sample with additive is compared to two reference samples without additives. Kokumi intensity is rated from 0-5 according to a scale from 0 to 5 (with 5 most intensive). The additive is added to a consumable and the sample is homogenised. The samples are presented to the sensory panel directly after homogenisation. The sensory panel included 6-8 trained individuals with exception of example 4, here the panel consists of 10 trained individuals. The compounds listed in the table below are dissolved in an aqueous solution (pH 6.5) of NaCl (30 mmol/L).

SMILES: N[C@@H](CCC(=O)N[C@@H](CSC(CC(=O)O)C(=O)O)C(=O)NCC(=O)O)C(=O)O (stereo partly drawn) [S-(α,β-dicarboxyethyl) γ-L-glutamyl-L-cysteinyl-glycine]
- Kokumi Intensity (0-5) (sensory panel [1]; chicken broth pH 6.5, additive 400 ppm): 3.5
- Sensory results compared to 2 (sensory panel [2]; additive 1000 ppm): greater effect on saltiness than the addition of NaCl
- concentration of an isointense NaCl-solution (sensory panel [3]): 57 mmol/L
- Sensory results (compared to 1) (sensory panel [4]): Slightly more salty
- concentration of an isointense NaCl-solution (sensory panel [5]): 48 mmol/L

SMILES: N[C@@H](CCC(=O)N[C@@H](CSCCC(=O)O)C(=O)NCC(=O)O)C(=O)O [β-S-(carboxyethyl) γ-L-glutamyl-L-cysteinyl-glycine]
- concentration of an isointense NaCl-solution (sensory panel [5]): 38 mmol/L

SMILES: N[C@@H](CCC(=O)N[C@@H](CSC(CC(=O)O)C(=O)O)C(=O)O)C(=O)O (stereo partly drawn) [S-(α,β-dicarboxyethyl) γ-L-glutamyl-cysteine]
- Sensory results compared to 2 (sensory panel [2]; additive 1000 ppm): greater effect on saltiness than the addition of NaCl
- concentration of an isointense NaCl-solution (sensory panel [5]): 60 mmol/L

SMILES: [Cl-].[Na+] [NaCl, sodium chloride, reference compound]
- Sensory results (compared to 1) (sensory panel [1]; additive 2000 ppm): More salty
- Sensory results (compared to 1) (sensory panel [2]; additive 2000 ppm): More salty

SMILES: N[C@@H](CCC(=O)N[C@@H](CSC(CCC(=O)O)C(=O)O)C(=O)NCC(=O)O)C(=O)O (stereo partly drawn) [β-S-(α,γ-dicarboxypropyl) γ-L-glutamyl-L-cysteinyl-glycine]
- concentration of an isointense NaCl-solution (sensory panel [5]): 48 mmol/L

SMILES: N[C@@H](CSC(CC(=O)O)C(=O)O)C(=O)O (stereo partly drawn) [S-(α,β-dicarboxyethyl)-L-cysteine, S-(α,β-dicarboxyethyl) cysteine]
- Sensory results (compared to 1) (sensory panel [1]; additive 400 ppm): More salty
- Sensory results compared to 2 (sensory panel [2]; additive 1000 ppm): Slightly more salty
- Sensory results (compared to 1) (sensory panel [2]; additive 1000 ppm): More salty
- concentration of an isointense NaCl-solution (sensory panel [5]): 40 mmol/L

SMILES: COC(=O)[C@@H](N)CSC(CC(=O)O)C(=O)O (stereo partly drawn) [S-(α,β-dicarboxyethyl) cysteine methyl ester]
- concentration of an isointense NaCl-solution (sensory panel [5]): 38 mmol/L

SMILES: CCOC(=O)[C@@H](N)CSC(CC(=O)O)C(=O)O (stereo partly drawn) [S-(α,β-dicarboxyethyl) cysteine ethyl ester]
- concentration of an isointense NaCl-solution (sensory panel [5]): 42 mmol/L

SMILES: CCOC(=O)C(CSC(CC(=O)O)C(=O)O)NC(=O)CC[C@H](N)C(=O)O (stereo partly drawn) [S-(α,β-dicarboxyethyl) γ-L-glutamyl-cysteine ethyl ester]
- concentration of an isointense NaCl-solution (sensory panel [5]): 48 mmol/L

SMILES: N[C@@H](CCC(=O)O)C(=O)[O-].[Na+] [MSG, monosodium glutamate]
- Sensory results (compared to 1) (sensory panel [1]; additive 2000 ppm): Higher umami intensity

SMILES: N[C@@H](CCC(=O)N[C@@H](CS)C(=O)NCC(=O)O)C(=O)O [GSH reduced, glutathione]
- Kokumi Intensity (0-5) (sensory panel [1]; chicken broth pH 6.5, additive 10 mmol/L): 3.5
